{"source": "patent US20140315876A1", "about": "“BETA-LACTAMASE INHIBITORS” (priority 2013, published 2014)", "test_system": "bacterial strains that express the class D cephalosporinase OXA-15", "assay": "Synergy MIC / standard BLI potentiation MIC assay, strains expressing OXA-15", "assay_type": "cell-based, E. coli", "details": "in the presence of a β-lactam; comparator Avibactam (comparator compound CCC)", "method": "The experimental protocol was performed according to Clinical and Laboratory Standards Institute (CLSI) guidelines with modifications as described below (CLSI guidelines can be derived from the CLSI document M07-A9 published in January 2012: “Methods for Dilution Antimicrobial Susceptibility Tests for Bacteria That Grow Aerobically; Approved Standard-Ninth Edition”).\nTo prepare for MIC testing, frozen glycerol stocks of clinical isolates (Klebsiella pneumoniae, Eschericia coli, Enterobacter spp, Citrobacter spp, or Pseudomonas aeruginosa) were used to streak for isolated colonies on rich, non-selective, tryptic soy agar containing 5% sheep's blood (TSAB). Frozen glycerol stocks of laboratory engineered, isogenic E. coli strains, which contain cloned β-lactamase expressing plasmids were used to streak for isolated colonies on rich, selective LB agar supplemented with 25 μg/mL tetracycline to maintain the plasmid. All strains were incubated at 37° C. for 18-24 hrs.\nOn the day of testing, primary cultures were started by scraping off 5-10 colonies from the TSAB plates containing clinical strains or the tetracycline supplemented LB plates containing engineered strains. The clinical strain material was suspended in ˜5 mL of cation adjusted Mueller Hinton Broth (CAMHB) in 14 mL culture tubes. The engineered strain material was suspended in CAMHB (supplemented with 25 μg/mL tetracycline) in 14 mL culture tubes. All strains were incubated at 37° C. with aeration (200 rpm) for ˜2 hrs until the optical density at 600 nm (OD600) was ≧0.1.\nThe two compound components of the assay were each diluted in CAMHB and added to the 96-well broth microdilution assay plates. 50 μL of the β-lactam was added to each well of the assay plate in 2-fold dilutions with final concentrations ranging from 128 to 0.13 μg/mL. 25 μL of the BLI compound was added to all wells in the broth microdilution plates at a final concentration of 4 μg/mL. Inoculum cultures were prepared by standardizing the primary cultures to OD600=0.1 and then adding 20 μL of the adjusted primary culture per 1 mL CAMHB for clinical strains or CAMHB (supplemented with tetracycline at 100 μg/mL) for engineered strains, so that the final inoculum density was ˜10^5 colony forming units per milliliter. Diluted inoculum cultures were used to inoculate 25 μL per well in 96-well broth microdilution assay plates. The final volume of each well was 100 μL and contained a β-lactam at different concentrations, a BLI compound at 4 μg/mL concentration, the bacterial culture at an OD600 of approximately 0.001 and when necessary tetracycline at 25 μg/mL.\nPlates were incubated for 18-20 hours at 37° C. with aeration (200 rpm). Following incubation, growth was confirmed visually placing plates over a viewing apparatus (stand with a mirror underneath) and then OD600 was measured using a SpectraMax 340PC384 plate reader (Molecular Devices, Sunnyvale, Calif.). Growth was defined as turbidity that could be detected with the naked eye or achieving minimum OD600 of 0.1. MIC values were defined as the lowest concentration producing no visible turbidity.\nThe synergy MIC (sMIC) assay determines the concentration of the BLI required to potentiate the activity of a fixed concentration of a β-lactam antibiotic against β-lactamase producing bacterial strains. The experimental protocol was performed according to Clinical and Laboratory Standards Institute (CLSI) guidelines with modifications as described below (CLSI guidelines can be derived from the CLSI document M07-A9 published in January 2012: “Methods for Dilution Antimicrobial Susceptibility Tests for Bacteria That Grow Aerobically; Approved Standard-Ninth Edition”). […]", "note": "Structures can show the parent of a compound that is named as a salt."}
{"smiles": "N[C@H]1C[C@H](NCc2nnc([C@@H]3CC[C@@H]4CN3C(=O)N4OS(=O)(=O)O)o2)C1", "note": "[Compound 757, (2S,5R)-2-(5-((((1r,3S)-3-aminocyclobutyl)amino)methyl)-1,3,4-oxadiazol-2-yl)-7-oxo-1,6-diazabicyclo[3.2.1]octan-6-yl hydrogen sulfate]", "values": [{"measurement": "activity against bacterial strains that express the class D cephalosporinase OXA-15, compared with Avibactam", "result": "more active than Avibactam"}]}
{"smiles": "NCC(N)c1nnc([C@@H]2CC[C@@H]3CN2C(=O)N3OS(=O)(=O)O)o1", "note": "(stereo partly drawn) [Compound 717, (2S,5R)-2-(5-(1,2-diaminoethyl)-1,3,4-oxadiazol-2-yl)-7-oxo-1,6-diazabicyclo[3.2.1]octan-6-yl hydrogen sulfate]", "values": [{"measurement": "activity against bacterial strains that express the class D cephalosporinase OXA-15, compared with Avibactam", "result": "more active than Avibactam"}]}
{"smiles": "O=C1N2C[C@@H](CC[C@H]2c2nnc(CNC3CCNCC3)o2)N1OS(=O)(=O)O", "note": "[Compound 769, (2S,5R)-7-oxo-2-(5-((piperidin-4-ylamino)methyl)-1,3,4-oxadiazol-2-yl)-1,6-diazabicyclo[3.2.1]octan-6-yl hydrogen sulfate]", "values": [{"measurement": "activity against bacterial strains that express the class D cephalosporinase OXA-15, compared with Avibactam", "result": "more active than Avibactam"}]}
{"smiles": "NCC(O)Cc1nnc([C@@H]2CC[C@@H]3CN2C(=O)N3OS(=O)(=O)O)o1", "note": "(stereo partly drawn) [Compound 733, (2S,5R)-2-(5-(3-amino-2-hydroxypropyl)-1,3,4-oxadiazol-2-yl)-7-oxo-1,6-diazabicyclo[3.2.1]octan-6-yl hydrogen sulfate]", "values": [{"measurement": "activity against bacterial strains that express the class D cephalosporinase OXA-15, compared with Avibactam", "result": "more active than Avibactam"}]}
{"smiles": "O=C1N2C[C@@H](CC[C@H]2c2nnc(N3CCNCC3)s2)N1OS(=O)(=O)O", "note": "[Compound 797, (2S,5R)-7-oxo-2-(5-(piperazin-1-yl)-1,3,4-thiadiazol-2-yl)-1,6-diazabicyclo[3.2.1]octan-6-yl hydrogen sulfate]", "values": [{"measurement": "activity against bacterial strains that express the class D cephalosporinase OXA-15, compared with Avibactam", "result": "more active than Avibactam"}]}
{"smiles": "N=C(N)N[C@H]1C[C@H](c2nnc([C@@H]3CC[C@@H]4CN3C(=O)N4OS(=O)(=O)O)o2)C1", "note": "[Compound 748, (2S,5R)-2-(5-((1r,3S)-3-guanidinocyclobutyl)-1,3,4-oxadiazol-2-yl)-7-oxo-1,6-diazabicyclo[3.2.1]octan-6-yl hydrogen sulfate]", "values": [{"measurement": "activity against bacterial strains that express the class D cephalosporinase OXA-15, compared with Avibactam", "result": "more active than Avibactam"}]}
{"smiles": "N=C(N)NCCCc1nnc([C@@H]2CC[C@@H]3CN2C(=O)N3OS(=O)(=O)O)o1", "note": "[Compound 714, (2S,5R)-2-(5-(3-guanidinopropyl)-1,3,4-oxadiazol-2-yl)-7-oxo-1,6-diazabicyclo[3.2.1]octan-6-yl hydrogen sulfate]", "values": [{"measurement": "activity against bacterial strains that express the class D cephalosporinase OXA-15, compared with Avibactam", "result": "more active than Avibactam"}]}
{"smiles": "NCCNCCc1nnc([C@@H]2CC[C@@H]3CN2C(=O)N3OS(=O)(=O)O)o1", "note": "[Compound 716, (2S,5R)-2-(5-(2-((2-aminoethyl)amino)ethyl)-1,3,4-oxadiazol-2-yl)-7-oxo-1,6-diazabicyclo[3.2.1]octan-6-yl hydrogen sulfate]", "values": [{"measurement": "activity against bacterial strains that express the class D cephalosporinase OXA-15, compared with Avibactam", "result": "more active than Avibactam"}]}
{"smiles": "O=C1N2C[C@@H](CC[C@H]2c2nnc(CC3CNC3)o2)N1OS(=O)(=O)O", "note": "[Compound 725, (2S,5R)-2-(5-(azetidin-3-ylmethyl)-1,3,4-oxadiazol-2-yl)-7-oxo-1,6-diazabicyclo[3.2.1]octan-6-yl hydrogen sulfate]", "values": [{"measurement": "activity against bacterial strains that express the class D cephalosporinase OXA-15, compared with Avibactam", "result": "more active than Avibactam"}]}
{"smiles": "NC1CCN(c2nnc([C@@H]3CC[C@@H]4CN3C(=O)N4OS(=O)(=O)O)o2)CC1", "note": "[Compound 773, (2S,5R)-2-(5-(4-aminopiperidin-1-yl)-1,3,4-oxadiazol-2-yl)-7-oxo-1,6-diazabicyclo[3.2.1]octan-6-yl hydrogen sulfate]", "values": [{"measurement": "activity against bacterial strains that express the class D cephalosporinase OXA-15, compared with Avibactam", "result": "more active than Avibactam"}]}
{"smiles": "O=C1N2C[C@@H](CC[C@H]2c2nnc(N3CCNCC3)o2)N1OS(=O)(=O)O", "note": "[Compound 713, (2S,5R)-7-oxo-2-(5-(piperazin-1-yl)-1,3,4-oxadiazol-2-yl)-1,6-diazabicyclo[3.2.1]octan-6-yl hydrogen sulfate]", "values": [{"measurement": "activity against bacterial strains that express the class D cephalosporinase OXA-15, compared with Avibactam", "result": "more active than Avibactam"}]}
{"smiles": "N[C@H]1CC[C@H](c2nnc([C@@H]3CC[C@@H]4CN3C(=O)N4OS(=O)(=O)O)o2)CC1", "note": "[Compound 781, (2S,5R)-2-(5-((1r,4S)-4-aminocyclohexyl)-1,3,4-oxadiazol-2-yl)-7-oxo-1,6-diazabicyclo[3.2.1]octan-6-yl hydrogen sulfate]", "values": [{"measurement": "activity against bacterial strains that express the class D cephalosporinase OXA-15, compared with Avibactam", "result": "more active than Avibactam"}]}
{"smiles": "N=C(N)NCc1nnc([C@@H]2CC[C@@H]3CN2C(=O)N3OS(=O)(=O)O)o1", "note": "[Compound 704, (2S,5R)-2-(5-(guanidinomethyl)-1,3,4-oxadiazol-2-yl)-7-oxo-1,6-diazabicyclo[3.2.1]octan-6-yl hydrogen sulfate]", "values": [{"measurement": "activity against bacterial strains that express the class D cephalosporinase OXA-15, compared with Avibactam", "result": "more active than Avibactam"}]}
{"smiles": "O=C1N2C[C@@H](CC[C@H]2c2nnc(C3CCNCC3)s2)N1OS(=O)(=O)O", "note": "[Compound 719, (2S,5R)-7-oxo-2-(5-(piperidin-4-yl)-1,3,4-thiadiazol-2-yl)-1,6-diazabicyclo[3.2.1]octan-6-yl hydrogen sulfate]", "values": [{"measurement": "activity against bacterial strains that express the class D cephalosporinase OXA-15, compared with Avibactam", "result": "more active than Avibactam"}]}
{"smiles": "N[C@H]1CC[C@@H](c2nnc([C@@H]3CC[C@@H]4CN3C(=O)N4OS(=O)(=O)O)o2)CC1", "note": "[Compound 780, (2S,5R)-2-(5-((1s,4R)-4-aminocyclohexyl)-1,3,4-oxadiazol-2-yl)-7-oxo-1,6-diazabicyclo[3.2.1]octan-6-yl hydrogen sulfate]", "values": [{"measurement": "activity against bacterial strains that express the class D cephalosporinase OXA-15, compared with Avibactam", "result": "more active than Avibactam"}]}
{"smiles": "O=C1N2C[C@@H](CC[C@H]2c2nnc(CCCN3CCNCC3)o2)N1OS(=O)(=O)O", "note": "[Compound 792, (2S,5R)-7-oxo-2-(5-(3-(piperazin-1-yl)propyl)-1,3,4-oxadiazol-2-yl)-1,6-diazabicyclo[3.2.1]octan-6-yl hydrogen sulfate]", "values": [{"measurement": "activity against bacterial strains that express the class D cephalosporinase OXA-15, compared with Avibactam", "result": "more active than Avibactam"}]}
{"smiles": "NCC(O)c1nnc([C@@H]2CC[C@@H]3CN2C(=O)N3OS(=O)(=O)O)o1", "note": "(stereo partly drawn) [Compound 715, (2S,5R)-2-(5-(2-amino-1-hydroxyethyl)-1,3,4-oxadiazol-2-yl)-7-oxo-1,6-diazabicyclo[3.2.1]octan-6-yl hydrogen sulfate]", "values": [{"measurement": "activity against bacterial strains that express the class D cephalosporinase OXA-15, compared with Avibactam", "result": "more active than Avibactam"}]}
{"smiles": "N=C(N)N1CCC(c2nnc([C@@H]3CC[C@@H]4CN3C(=O)N4OS(=O)(=O)O)o2)CC1", "note": "[Compound 712, (2S,5R)-2-(5-(1-carbamimidoylpiperidin-4-yl)-1,3,4-oxadiazol-2-yl)-7-oxo-1,6-diazabicyclo[3.2.1]octan-6-yl hydrogen sulfate]", "values": [{"measurement": "activity against bacterial strains that express the class D cephalosporinase OXA-15, compared with Avibactam", "result": "more active than Avibactam"}]}
{"smiles": "O=C1N2C[C@@H](CC[C@H]2c2nnc([C@@H]3CNCCN3)o2)N1OS(=O)(=O)O", "note": "[Compound 778, (2S,5R)-7-oxo-2-(5-((S)-piperazin-2-yl)-1,3,4-oxadiazol-2-yl)-1,6-diazabicyclo[3.2.1]octan-6-yl hydrogen sulfate]", "values": [{"measurement": "activity against bacterial strains that express the class D cephalosporinase OXA-15, compared with Avibactam", "result": "more active than Avibactam"}]}
{"smiles": "Nc1nnc([C@@H]2CC[C@@H]3CN2C(=O)N3OS(=O)(=O)O)o1", "note": "[Compound 707, (2S,5R)-2-(5-amino-1,3,4-oxadiazol-2-yl)-7-oxo-1,6-diazabicyclo[3.2.1]octan-6-yl hydrogen sulfate]", "values": [{"measurement": "activity against bacterial strains that express the class D cephalosporinase OXA-15, compared with Avibactam", "result": "more active than Avibactam"}]}
